From patent US8119112B2, “Ophthalmic compositions with an amphoteric surfactant and hyaluronic acid” (Bausch & Lomb Incorporated, priority 2008, dated 2012)

Experiment: Precipitate formation of polyquaternium-1 with hyaluronic acid
Format: physicochemical
Excerpt: One of the more common quaternary ammonium compounds is α-[4-tris(2-hydroxyethyl)-ammonium chloride-2-butenyl]poly[1-dimethyl ammonium chloride-2-butenyl]-ω-tris(2-hydroxyethyl) ammonium chloride, also referred to in the art as polyquaternium-1. Quaternary ammonium compounds are generally referred to in the art as “polyquaternium” disinfectants, and are identified by a particular number following the designation such as polyquaternium-1, polyquaternium-10 or polyquaternium-42. Polyquaternium-1 is present in the ophthalmic compositions from 0.5 ppm to 3 ppm. […] The precipitate is believed to be the complexation product of hyaluronic acid and polyquaternium-1.

α-[4-tris(2-hydroxyethyl)-ammonium chloride-2-butenyl]poly[1-dimethyl ammonium chloride-2-butenyl]-ω-tris(2-hydroxyethyl) ammonium chloride [polyquaternium-1]
concentration of polyquaternium-1 in the compositions that results in formation of a precipitate: > 3 ppm
